Where two headings read alike, the source gives them in different places.

The results in this text go back to patent US8957087B2, “Heterocyclic substituted acardite derivate and application thereof” (Jiangsu Provincial Institute of Materia Medica Co., Ltd., priority 2009, dated 2015).

Experiment [1] deals with renal carcinoma cell line GCR-1 transplanted tumor. It counts as in vivo, BALB/cA nude mice. The note with it: BALB/cA nude mice; 60 mg/kg, 6 times every week for 3 weeks; Sorafenib oral 60 mg/kg. The procedure, abridged:
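Female BALB/cA nude mice (18–22 g) bearing GCR-1 renal carcinoma xenografts, 6 per treated group, 12 saline controls. Drug given at 60 mg/kg, 6 times weekly for 3 weeks, then one week of observation; tumor inhibition rate reported.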

Experiment [2] relates to human lung cancer A549 transplantation tumor. In kind it is in vivo. The note with it: BALB/cA nude mice; 60 mg/kg, 6 times every week for 3 weeks; Sorafenib oral 60 mg/kg. An outline of the steps:
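Female BALB/cA nude mice, 35-40 days old, bearing A549 human lung cancer transplants; 6 per treatment group, 12 saline controls. Compound given at 60 mg/kg, 6 times weekly for 3 weeks, then observed one week.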

Experiment [3] has as its system human liver cancer cell bel-7402 transplantation tumor. In kind it is in vivo. The settings on record: BALB/cA nude mice; 60 mg/kg, 6 times every week for 3 weeks; Sorafenib oral 60 mg/kg. An outline of the steps: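 Female BALB/cA nude mice (35–40 days, 18–22 g) bearing Bel-7402 xenografts; 6 mice per treated group, 12 in saline controls. Compound dosed at 60 mg/kg, 6 times weekly for 3 weeks, followed by one week of observation; tumor inhibition rate scored against controls.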

Experiment [4] concerns human umbilical vein endothelial cell HUVEC. In words: Growth of human umbilical vein endothelial cell HUVEC by CCK8 method. It counts as cell-based. The note with it: Final concentration 1 x 1.0*10^(−5) mol/L. An outline of the steps: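 HUVEC cells were grown in 1640 medium with 10% FBS, and growth was measured by the CCK8 method. OD values of drug and control wells were corrected by subtracting the blank-well OD.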

For experiment [5], the system named is mice S180 sarcoma. In words: Experimental therapeutic action on S180 sarcoma mice. The note with it: mice S180 sarcoma, 60 mg/kg orally for 9 days.
Experiment [6] concerns Human colon cancer HT-29 transplantable tumor. In words: Human colon cancer HT-29 transplantable tumor in nude mice. The note with it: HT-29 in nude mice, 60 mg/kg ig 9 times.
Method: Experimental therapeutic action of the compound in the present invention on Human colon cancer HT-29 transplantable tumor in nude mice.
Take eugenic tumor tissues and cut into about 1.5 mm^3, and then incoculate subcutaneously at the right armpit of nude mice under the sterile conditions. The diameter of the transplantable tumor in nude mice was determined with a vernier caliper, and the animals were divided into groups after the tumors were grown to 100-300 mm^3. Using the method of measuring the tumor diameter, dynamically observe the antitumor effects of tested materials. The diameter of the tumor was determined three times every week and the mouse weight was weighed at the same time. […] The solvent was intragastrically administrated as the control for continuous 9 times. Equal amount of control was administrated in the negative control group.
Tumor volume (TV) is calculated as: TV=½×a×b^2, wherein a and b respectively represent length and width.
Relative tumor volume (RTV) is calculated as: RTV=TVt/TV0, wherein TV0 is the tumor volume when administrated according to different cages and TVt is the tumor volume measured each time.
Relative tumor reproduction rate T/C (%) is calculated as follows:
TRTV: RTV in the treatment group; CRTV: RTV in the negative control group.
The test results used relative tumor reproduction rate T/C (%) as evaluating indicator of anti-tumor activity.
The test system of experiment [7] is human high-metastic lung cancer cell 95D. Kind of experiment: Inhibition of human high-metastic lung cancer cell 95D migration (Boyden Chamber Transwell). In kind it is cell-based. The settings on record: Final concentration 1 x 1.0*10^(−5) mol/L. The procedure, abridged:
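Boyden Transwell migration (8 μm pores) of 95D cells, RPMI-1640 with 10% FBS versus serum-free medium; inhibition rate calculated.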

Experiment [8] relates to Raf-1(truncated). Kind of experiment: Raf-1 inhibitor screening by chemoluminescence method. It counts as biochemical. The note with it: Final concentration 1 x 1.0*10^−5 mol/ml. The text has this: 1. Inhibitory activity of the compound of the present invention on raf kinase
Raf-1 inhibitor screening by chemoluminescence method
Westernblot electrophoresis apparatus Rotaryshaker
Raf-1(truncated), Magnesium/ATP Cocktail, MEK1 unactive

In experiment [9] the test system is human lung cancer cell strain A549. Kind of experiment: MTT assay, inhibition of growth of human lung cancer cell strain A549. It counts as cell-based. The procedure, abridged:
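A549 cells grown in F12 with 10% FBS; growth read by MTT, inhibition rate from blank-corrected OD of drug wells versus control wells.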
For orientation: Tetrazolium dyes change colour on reduction, which living cells bring about.

Experiment [10] concerns lung cancer cell A549. Kind of experiment: Effects on the adhesive ability of lung cancer cell A549. In kind it is cell-based, human. The note with it: Final concentration 1 x 1.0*10^(−5) mol/L. The procedure, abridged: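 A549 cells in 1640 medium with 10% FBS tested for adhesion to gelatin versus poly-lysine (PLL), with CCK8 used as read-out. Inhibition rate derived from the gelatin/PLL adhesion OD ratio of dosed cells relative to the undosed cell group.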

In experiment [11] the test system is human umbilical vein endothelial cell HUVEC. Kind of experiment: Lumen formation ability of HUVEC (Matrigel method). It counts as cell-based. The note with it: Final concentration 1 x 1.0*10^(−5) mol/L. An outline of the steps: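 HUVEC at passage 3–5, cultured in M199 at 37° C under 5% CO2, were plated on Matrigel with compound. Spontaneous lumen formation was scored as an inhibition rate.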

Setting [12] is: Final concentration 1 x 1.0*10^(−5) mol/L.

Take `O=C(Nc1ccc(Oc2ncnc3cc(F)ccc23)cc1)Nc1ccc(Br)c(C(F)(F)F)c1` [Compound 21, N-(4-bromo-3-(trifluoromethyl)phenyl)-N′-(4-(4-(7 fluoroquinazolinyl)oxy)phenyl)urea]: in experiment [1], the “Relative tumor reproduction rate T/C (%) on human renal carcinoma GCR-1 cell transplanted tumor model in nude mice” value was found to be 7.8%. The “Relative tumor reproduction rate T/C (%) on human lung cancer A549 transplantation tumor in nude mice” value in experiment [2] was 13.7%. The “Relative tumor reproduction rate T/C (%) on human liver cancer cell bel-7402 transplantation tumor model in nude mice” value in experiment [3] worked out at 16.4%. Also, the “Inhibition rate, growth of HUVEC cell” value in experiment [4] is 11.21%. Also, the “Tumor growth inhibition rate (%)” value in experiment [5] is on record as 59.7%. Further, the “Relative tumor reproduction rate T/C (%)” value in experiment [6] was 38.7%. In [7], the “Inhibition rate, 95D cell strain migration” value came to 88.76%. Also, the “Inhibition rate % on raf kinase” value in experiment [8] is given as 98.9%. For the same compound, the “Inhibition rate, growth of human lung cancer cell A549” value in experiment [9] worked out at 89.21%. For the same compound, the “Inhibition rate, adhesion ability of human lung cancer cell A549” value (shortened to “Inhibition rate, adhesion ability”) in [10] is recorded as 90.22%. Also, the “Inhibition rate, lumen formation ability of HUVEC” value in experiment [11] came to 89.47%.
Take `Nc1ccc2c(Oc3ccc(NC(=O)Nc4ccc(Br)c(C(F)(F)F)c4)cc3)cncc2c1` [Compound 27, N-(4-bromo-3-(trifluoromethyl)phenyl)-N′-(4-(4-(7-amino-isoquinolyl)oxy)phenyl)urea]: the “Relative tumor reproduction rate T/C (%) on human renal carcinoma GCR-1 cell transplanted tumor model in nude mice” value in experiment [1] is 26.2%. Further, the “Relative tumor reproduction rate T/C (%) on human lung cancer A549 transplantation tumor in nude mice” value in experiment [2] is 36.3%. Also, the “Relative tumor reproduction rate T/C (%) on human liver cancer cell bel-7402 transplantation tumor model in nude mice” value in experiment [3] is reported as 29.2%. The “Inhibition rate, growth of HUVEC cell” value in experiment [4] was 24.73%. Further, in experiment [5], the “Tumor growth inhibition rate (%)” value came to 55.1%. The “Relative tumor reproduction rate T/C (%)” value in experiment [6] was 80.3%. Also, in experiment [7], the “Inhibition rate, 95D cell strain migration” value is listed as 59.77%. The “Inhibition rate % on raf kinase” value in [8] is on record as 8.8%. In addition, the “Inhibition rate, growth of human lung cancer cell A549” value in experiment [9] was 64.71%. Moreover, the “Inhibition rate, adhesion ability” value in [10] was 94.77%. Further, in experiment [11], the “Inhibition rate, lumen formation ability of HUVEC” value was determined as 89.75%.
Take `CNC(=O)c1ncc(Oc2ccc(NC(=O)Nc3ccc(F)c(C(F)(F)F)c3)cc2)c2ccc(N)cc12` [Compound 11, N-(4-fluoro-3-(trifluoromethyl)phenyl)-N′-(4-(2-(N-methylaminoformoxyl)-4-(7-amino-isoquinolyl)oxy)phenyl)urea]: in [1], the “Relative tumor reproduction rate T/C (%) on human renal carcinoma GCR-1 cell transplanted tumor model in nude mice” value is given as 32.1%. Further, in experiment [2], the “Relative tumor reproduction rate T/C (%) on human lung cancer A549 transplantation tumor in nude mice” value was 43.7%. In experiment [3], the “Relative tumor reproduction rate T/C (%) on human liver cancer cell bel-7402 transplantation tumor model in nude mice” value stood at 23.7%. Besides, in experiment [4], the “Inhibition rate, growth of HUVEC cell” value is 29.20%. Moreover, the “Tumor growth inhibition rate (%)” value in experiment [5] was found to be 54.2%. In addition, the “Relative tumor reproduction rate T/C (%)” value in experiment [6] was determined as 81.2%. The “Inhibition rate, 95D cell strain migration” value in experiment [7] turned out to be 78.66%. Moreover, in experiment [8], the “Inhibition rate % on raf kinase” value is 11.2%. In experiment [9] (setting [12]), the “Inhibition rate, growth of human lung cancer cell A549” value worked out at 69.20%. For the same compound, the “Inhibition rate, adhesion ability” value in experiment [10] stood at 59.63%. Further, the “Inhibition rate, lumen formation ability of HUVEC” value in experiment [11] amounted to 79.63%.
Regarding `CNC(=O)c1ncc(Oc2ccc(NC(=O)Nc3ccc(Br)c(C(F)(F)F)c3)cc2)c2ccc(N)cc12` [Compound 12, N-(4-bromo-3-(trifluoromethyl)phenyl)-N′-(4-(2-(N-methylaminoformoxyl)-4-(7-amino-isoquinolyl)oxy)phenyl)urea], the “Relative tumor reproduction rate T/C (%) on human renal carcinoma GCR-1 cell transplanted tumor model in nude mice” value in experiment [1] is on record as 20.5%. The “Relative tumor reproduction rate T/C (%) on human lung cancer A549 transplantation tumor in nude mice” value in experiment [2] amounted to 36.3%. In addition, the “Relative tumor reproduction rate T/C (%) on human liver cancer cell bel-7402 transplantation tumor model in nude mice” value in experiment [3] was determined as 31.6%. Moreover, the “Inhibition rate, growth of HUVEC cell” value in experiment [4] was found to be 12.31%. Also, in experiment [5], the “Tumor growth inhibition rate (%)” value was 45.7%. Besides, the “Relative tumor reproduction rate T/C (%)” value in experiment [6] worked out at 80.5%. Moreover, the “Inhibition rate, 95D cell strain migration” value in experiment [7] was determined as 66.79%. Further, in experiment [8], the “Inhibition rate % on raf kinase” value was 12.1%. Moreover, the “Inhibition rate, growth of human lung cancer cell A549” value in [9] (setting [12]) is given as 42.31%. The “Inhibition rate, adhesion ability” value in experiment [10] came to 62.30%. The “Inhibition rate, lumen formation ability of HUVEC” value in experiment [11] amounted to 52.37%.
